Measurements taken from patent US4492698A, “Diphenylbutyl-1-acylpiperazines” (priority 1980, dated 1985).
Counter-ions that a name gives are not always drawn. Like-named read-outs stand apart in the source and are kept apart here.

Assays:
male NMRI mice [1] = conditions: general statement on the test; cited from earlier work
mice (NMRI) = assay: writhing test (acetic acid), analgetic properties; type: in vivo; conditions: Mus musculus, sc, 20 min before acetic acid i.p.; female mice; read-out: ED50 (dose blocking the writhing behaviour in 50% of the animals)
Protocol: The writhing test is a frequently used test of analgetic properties (Witkin, L. B. et al., J. Pharmacol. Exp. Ther. 133, 400 (1961)). If acetic acid (0.5%, 15 ml/kg) is injected intraperitoneally in mice (NMRI) they will without exception develop a writhing behaviour characterized by stretching their hind legs. The drugs to be tested were administered subcutaneously to 6 female mice at each dose 20 min. before the injection of the acetic acid. After 10 min. The behaviour of the mice was studied in 5 min. The ED50 value is the dose blocking the writhing behaviour in 50% of the animals during the 5 min. study period.

male NMRI mice [2] = assay: isolation-induced aggressive behaviour; type: in vivo; conditions: Mus musculus, sc, read-out: ED50 (dose inhibiting aggressive behaviour among 50 percent of the pairs)
Description: Male mice subjected to prolonged isolation develop aggressive behaviour against each other when paired (Yen, C. Y. et al., Arch. Int. Pharmacodyn. 123, 179, (1959); Valzelli, L., Adv. Pharmacol. 5, 79 (1967)). […] The clinical correlation of this test indicates tranquillizing and anxiolytic activities as well as antiaggressive properties as such (Duncan, R. L. et al., J. Med. Chem. 13, 1 (1970)).
This type of aggression is interesting because it is known that this kind of emotional behaviour might be located in limbic structures in the brain (MacLean, P. D., Psychosom. Med. 11, 338 (1949)).
Every week male NMRI mice, weighing 20-22 g, were isolated in Makrolon cages for three weeks with diet and water ad libitum. A piece of cardboard was placed between the cages to prevent visual contact.
To test aggressiveness the mice were paired in a neutral area, a beaker (14 cm high and diameter 14 cm). A pair is considered aggressive if both the animals show clear signs of fighting within 5 min. This fighting is characterized by biting and vocalization. As soon as fighting is seen, the mice are separated and brought to their home cage. […] Animals showing no aggression are discarded. […] The test substance is administered s.c. (0.2-0.4 ml/20 g). The mice are paired 0.5 h after the injection for trials of 5 min. duration.
The ED50 -value (mg/kg) reported is the dose inhibiting aggressive behaviour among 50 percent of the pairs 0.5 hour after drug administration.

[3] = tested on: male hooded Long-Evans rats; assay: spontaneous mouse-killing (muricide) by rats; type: in vivo, rat (hooded Long-Evans); conditions: for ED50: Rattus norvegicus, sc
Description: For the purpose of detecting new psychotropic substances with antiaggressive properties, pharmacologist have used several different models. One model used, the mouse-killing (muricide) by rats (Vogel, J. R. in Industrial Pharmacology, Vol. 2, Antidepressants, Stuart, F. and Lal, H., Ed., Futura Publishing Company, 1975, p. 99), is based on an existing interspecies aggression (Karli, P., Behaviour 10, 81 (1956)). This form of aggressive behaviour which is considered to be of predatory nature, is physiologically and topographically different from other forms of aggression (O'Boyle, M., Psychol. Bull. 81, 261 (1974)). Mousekilling is a spontaneous behaviour in some rat strains e.g. male hooded Long-Evans rats.
Male hooded Long-Evans rats placed in individual cages were used. By testing a number of rats, a colony of rats was obtained that killed a mouse whenever introduced into the rats' cage, by biting the mouse through the cervical spinal cord.
Each rat was tested for mouse-killing behaviour (killing a mouse within 5 minutes) prior to each experiment, thus serving as its own positive control. For each dose level 6 positive rats were selected and the test substance was administered by subcutaneous injection. Doses were selected to form a dose-response curve and the […] (ED50, mg/kg) was calculated by means of linear regression. The rats were tested at 1, and 2 hours after being injected subcutaneously. [drawing 9]

[4] = 0.5 hour after drug administration
[5] = 1 hr after injection, read-out: ED50, spontaneous mouse-killing, 1 hr
[6] = read-out: ED50, spontaneous mouse-killing, s.c., 2 hr after injection

Structure (SMILES) | ED50 (mice (NMRI)) [mg/kg] | ED50 (male NMRI mice [2]; [4]) [mg/kg] | ED50 [3, 5] [mg/kg] | ED50 [3, 6] [mg/kg] | also measured
CN1C(=O)CN=C(c2ccccc2)c2cc(Cl)ccc21 [Diazepam] | – | – | – | – | activity on isolation-induced aggressive behaviour (male NMRI mice [1]): active
O=C(C1CC1)N1CCN(CCCC(c2ccc(F)cc2)c2ccc(F)cc2)CC1 [Compound 3] | 0.8 | 1.4 | 2.6 | 3.7 | –
CN(C)CCCN1c2ccccc2Sc2ccc(Cl)cc21 [Chlorpromazine] | – | – | – | – | ED50 (male NMRI mice [2]; 0.5 h): 1.4 mg/kg
CC(=O)N1CCN(CCCC(c2ccc(F)cc2)c2ccc(F)cc2)CC1 [B, 1-acetyl-4-[4,4-(di-fluorophenyl)butyl]piperazine] | – | 10 | > 10 | > 10 | pharmacological properties compared with compounds I ([3]; versus compounds I of the invention, in the tests of the application): inferior to the compounds I of the present invention
CC(C)C(=O)N1CCN(CCCC(c2ccc(F)cc2)c2ccc(F)cc2)CC1 [Compound 2] | 1.1 | – | – | – | –
CCC(=O)N1CC(C)N(CCC(c2ccccc2)c2ccccc2)CC1C (stereo not shown) [Compound A1] | 4.2 | – | – | – | –
CCC(=O)N1CCN(CCCC(c2ccc(F)cc2)c2ccc(F)cc2)CC1 [Compound 1, 1-Ethylcarbonyl-4-[4,4-(di-p-fluorophenyl)butyl]-piperazine hydrochloride] | 0.5 | 2.8 | 1 | 1.8 | –
CN(C)CCC=C1c2ccccc2CCc2ccccc21 [Amitriptyline] | – | 5 | > 10 | 6.4 | –
